Test results as given in PubChem BioAssay AID179 (DTP/NCI, 2004).
“And” between values parts separate entries of the source, which are not always exact repeats. Equal values may be shown once. The source made the active and inactive calls.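 Rule for the calls: active = compounds giving half or more protection of infected cells from virus-caused growth loss, again on retest; inactive = the rest.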

Tested on: CEM cells HIV-1 protection, formazan growth assay
Assay: NCI AIDS Antiviral Assay
Settings: for IC50: measured here: growth of uninfected CEM cells
Outline: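 Human CEM cells, uninfected and HIV-1-infected, exposed to five drug concentrations; growth measured by soluble formazan assay and scored as percent protection from infection, with protecting compounds retested.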

Row | SMILES | EC50 [µM] | IC50 | outcome
1 | O=S(=O)(O)c1c(Cl)c(Cl)c(O)c2ncccc12 | > 200 | 1.17 µM | –
2 | CC(C)CCN(CCC(C)C)CC(=O)Nc1ccc(S(=O)(=O)c2ccc(NC(=O)CN(CCC(C)C)CCC(C)C)cc2)cc1 | > 100 | 1.62 µM | –
3 | CCc1c2[n-]c(c1C)/C=c1\[n-]/c(c(C)c1CC)=C\c1[n-]c(c(CCC(=O)O)c1C)/C=c1\[n-]/c(c(C)c1CCC(=O)O)=C\2.[Zn] | > 21.4 | 13.5 µM | –
4 | CCOC(=O)C(C(=O)OCC)C1c2ccccc2-c2ccccc21 | > 200 | 77.6 µM | –
5 | CC1=C[P+](CCc2ccccc2)(CCc2ccccc2)C=C1C | – | – | inactive
6 | CSc1nc(NC2OCC(O)C(O)C2O)c(N)c(=O)n1C (stereo not given) | – | – | inactive
7 | CCCCCCCCSC(SCCCCCCCC)=C1C(=O)N(c2ccccc2)N=C1C | > 28.8 | > 28.8 µM | –
8 | Cc1cccc(C)c1NC(=O)CCc1nc(=S)[nH][nH]1 | > 468 | > 468 µM | –
9 | Cn1cc(NC(=O)c2cc(NC(=O)CCCCCC(=O)Nc3cc(C(=O)Nc4cc(C(=O)NCCC(=N)N)n(C)c4)n(C)c3)cn2C)cc1C(=O)NCCC(=N)N | 53.7 | 67.6 µM | –
10 | COC1C2c3ccccc3C(C#N)(Cc3ccc4c(c32)OCO4)N1C(=O)c1ccccc1 (stereo not given) | – | – | inactive
11 | O=C1OC(=O)C2C1C1C(c3ccccc3)=C(c3ccccc3)C2(O)C2C(=O)OC(=O)C12 (stereo not given) | > 17.4 | 10.2 µM | –
12 | CC(C)(N=NC(C)(C)C(=O)NCCO)C(=O)NCCO | > 200 | > 200 µM | –
13 | O=C1CN(c2cccc(C(F)(F)F)c2)C(=O)CN1CCN1CC(=O)N(c2cccc(C(F)(F)F)c2)CC1=O | > 200 | > 200 µM | –
14 | COc1ccc2oc(=N)c(C(=O)NCc3ccccc3)cc2c1 | > 200 | 17.8 µM | –
15 | O=C1OC(c2ccccc2)c2ccsc2-n2cccc21 (stereo not given) | > 200 | 123 µM | –
16 | O=C(O)C(SC(=S)c1ccc(C(=S)SC(C(=O)O)c2ccccc2)cc1)c1ccccc1 (stereo not given) | – | – | inactive
17 | COc1cc(C(C)O)c[n+](Cc2ccccc2)c1 (stereo not given) | > 302 | > 302 µM | –
18 | CN1Cc2cc3cc4c(cc3nc2N(C)C1)OCCO4 | > 200 | 162 µM | –
19 | O=C1C[C@H]2[C@H](c3ccc(Br)cc3)[C@H]3C(=O)c4ccccc4NC(=O)[C@@H]3[C@@]2(O)c2ccccc2N1 | > 200 | 77.6 µM | –
20 | COC(=O)/C(=C(/C)c1ccco1)P(=O)(OC)OC | > 200 | > 200 µM | –
21 | NCC1OC(n2cnc3c(N)ncnc32)CC1O (stereo not given) | > 200 | > 200 µM | –
22 | COc1cccc2c1C(c1cccc3ccccc13)OC2=O (stereo not given) | > 45.7 | 7.94 µM | –

Row | SMILES | EC50 [µM] | IC50 | outcome
23 | C#C[C@]1(O)CCCC2=CC(=O)CC[C@@]21C | – | – | inactive
24 | O=c1c2c(sc3ccccc13)CCC2 | > 151 | > 151 µM | –
25 | CCCCCCCCCCCCCCCCN1CCCCCC1=O | > 77.6 | > 77.6 µM | –
26 | CC(=O)Nc1nc(C)c(CCC#N)c(SC(=N)N)n1 | > 200 | > 200 µM | –
27 | O=C(O)CCC1(CCC(=O)O)CCCCCCCCC(CCC(=O)O)(CCC(=O)O)C(=O)C1=O | > 200 | > 200 µM | –
28 | CC1(c2ccc(Cl)cc2)c2ccccc2C(=O)N1CCCN1C(=O)c2ccccc2C1=O (stereo not given) | > 200 | 195 µM | –
29 | CCOC(=O)c1nc2cc(C(F)(F)F)ccc2nc1Nc1ccc(OC)cc1 | > 126 | > 126 µM | –
30 | O=C(NN1C(=O)C(Cl)C1c1cccc(O)c1)c1ccccc1O (stereo not given) | > 151 | 141 µM | –
31 | N=C1C=C/[N+](=C\C=CCO)C([O-])=N1 | – | – | active
32 | N#CCCN(CCC#N)c1ccc(/C=C2\N=C(COc3ccc(Cl)cc3Cl)OC2=O)cc1 | > 537 | 490 µM | –
33 | COc1cc2c(C)cc(=O)oc2cc1O | > 457 | 148 µM | –
34 | CC(C)=C1C2C(C13C(=O)OC(C)(C)OC3=O)C2(C)C (stereo not given) | > 490 | > 490 µM | –
35 | CC(=O)NNC(=S)/N=C\C(C(=O)c1ccccc1)=C(/O)c1ccccc1 | > 200 | > 200 µM | –
36 | COc1cccc2c(NNc3ccc(Cl)cc3)c3ccc([N+](=O)[O-])cc3nc12 | > 200 | 12.3 µM | –
37 | CC1CCCN2C(=O)CN(Cc3ccccc3)CC(=O)N12 (stereo not given) | – | – | inactive
38 | CC(=O)[O-].CCCCCCC/C=N/[N-]C(=O)c1ccncc1.[Co+2].[OH3+].[OH3+].[OH3+].[OH3+] | > 200 | 115 µM | –
39 | Cc1ccc(/C=C2/NC(=S)SC2=O)cc1 | > 200 | 170 µM | –
40 | N#CC1C(C#N)C2CC1C1N=NN(c3ccccc3)C21 (stereo not given) | > 200 | > 200 µM | –
41 | NNC(=O)c1ccccc1NC(=O)/C(=C/c1ccccc1O)NC(=O)c1ccccc1 | > 200 | > 200 µM | –
42 | Cc1ccc(S(=O)(=O)c2ccc(C)cc2[N+](=O)[O-])c([N+](=O)[O-])c1 | > 40.7 | > 40.7 µM | –
43 | CC(=O)OCCn1cnc2c(NCC=C(C)C)ncnc21 | > 200 | > 200 µM | –
44 | CC1(C)CNCC2(C)OCCCOC3(C)CNCC(C)(C)NC(=O)C(C)(CNCC(C)(C)NC3=O)OCCCOC(C)(CNCC(C)(C)NC2=O)C(=O)N1 | > 200 | > 200 µM | –

Row | SMILES | EC50 [µM] | IC50 | outcome
45 | CC(C)N=C(N)NC#N | > 1480 | > 1480 µM | –
46 | COC1CC(C)(NC(C)=O)C2OC(c3ccccc3)OCC2O1 (stereo not given) | > 200 | > 200 µM | –
47 | O=C(O)CSc1n[nH]c(-c2ccc(O)cc2)n1 | > 1000 | 977 µM | –
48 | O=C(Nc1cc2c(oc1=O)CCCCCC2)c1ccccc1 | > 200 | > 200 µM | –
49 | Cc1cccc2c(=O)c3cccc([C@@H](C)C(=O)O)c3oc12 | > 200 | 67.6 µM | –
50 | O=C(CCl)N1CCN(c2ccccc2)CC1 | > 1050 | 1.2 µM | –
51 | CN(C)[C@@H]1C(=O)C(C(=O)NCNCCCC(=O)O)=C(O)[C@@]2(O)C(=O)C3=C(O)c4c(O)cccc4[C@@](C)(O)[C@H]3C[C@@H]12 | > 1.78 | > 1.78 µM | –
52 | O=C1CSC(c2c[nH]c3ccccc23)N1c1ccc(Cl)cc1Cl (stereo not given) | > 257 | 56.2 µM | –
53 | O=C(O)c1cocc1C(=O)O | – | – | inactive
54 | COc1ccc2c3c1OC1C4(CCC5C(C2)N(CC2CC2)CCC351)OCCO4 (stereo not given) | > 129 | > 129 µM | –
55 | CC(=O)N(CC1CCCN(C)C1)C1C2CC3CC(C2)CC1C3 (stereo not given) | > 117 | 46.8 µM | –
56 | CCCCCCCCCCCCCCCC(=O)Nc1ccn(C2CCC(COP(=O)(O)O)O2)c(=O)n1 (stereo not given) | 1.58 | 50.1 µM | –
57 | CC(=O)OC1SC(c2c(F)cccc2F)n2c1nc1ccccc12 (stereo not given) | 38 | 126 µM | –
58 | C=C(Nc1nc2ccc(C)cc2s1)C(=O)C(CC)C(=O)C(CC)CC1C(=O)NC(=O)NC1=O (stereo not given) | > 39.8 | > 39.8 µM | –
59 | N=C(N)c1ccc(N=NNc2ccc(C(=N)N)cc2)cc1 (tested in a mixture with another compound) | > 151 | 39.8 µM | –
60 | c1csc(-c2cc(-c3ccsc3)c(-c3ccsc3)s2)c1 | > 200 | 148 µM | –
61 | CC1OC([C@]2(C)O[C@@H]([C@@]3(C)OC=CC3=O)CC2=O)CC1=O (stereo not given in full) | – | – | inactive
62 | CCOC(=O)c1c(-c2cc(OC)c(OC)c(OC)c2)csc1N | > 200 | 12 µM | –
63 | CC1(C)O[C@@H]2[C@@H]3OC(=O)C[C@@H]3[C@@H](COCc3ccccc3)[C@@H]2O1 | > 200 | > 200 µM | –
64 | C[C@H](CCC1=NCCN1)[C@H]1CC[C@H]2[C@@H]3CC[C@@H]4C[C@H](O)CC[C@]4(C)[C@H]3CC[C@]12C | > 100 | 13.8 µM | –
65 | Cc1cc(Cc2c(F)c(F)c(Cc3cc(C)no3)c(F)c2F)on1 | > 100 | > 100 µM | –
66 | CN1C(=S)C(c2ccccc2)Sc2ccccc21 (stereo not given) | > 200 | 42.7 µM | –

Row | SMILES | EC50 [µM] | IC50 | outcome
67 | Cc1cccc(C)c1NC(=O)CN(CC(C)C)CC(O)COc1ccccc1 (stereo not given) | > 200 | 27.5 µM | –
68 | CCOC(=O)c1cc2ccccc2cc(C(=O)OCC)c1=O | > 200 | 34.7 µM | –
69 | S=c1sc2c(Cl)nc(Cl)nc2n1-c1ccccc1 | > 31.6 | > 31.6 µM | –
70 | O=C(CCl)Nc1ccc(SSc2ccc(NC(=O)CCl)cc2)cc1 | > 2 | 1.35 µM | –
71 | C=CCc1cc(-c2cc(CC=C)c(O)c(CN(CC)CC)c2)cc(CN(CC)CC)c1O | > 200 | 93.3 µM | –
72 | Cc1ccc(N(C(=O)Nc2ccccc2)C2=NCC(C)S2)cc1C (stereo not given) | > 200 | > 200 µM | –
73 | COC1N(C2CC(F)C(CO)O2)C(=O)NC(=O)C1(C)I (stereo not given) | 0.00339 | 57.5 µM and 6.17 µM | active
74 | COCCCNC(=O)C1=C(C)NC(C)=C(C(=O)NCCCOC)C1 | > 200 | 53.7 µM | –
75 | CCOC(=O)C1SC(=Nc2ccccc2)N=C1C (stereo not given) | – | – | inactive
76 | COc1ccc(/C(=N/Nc2nc3ccccc3n2Cc2ccccc2)C(=O)O)cc1 | > 200 | 4.27 µM | –
77 | COc1ccc(N=C/C=C/c2ccccc2)cc1 | > 21.9 | > 21.9 µM | –
78 | N#CC(C#N)=C/C=C/c1ccccc1[N+](=O)[O-] | > 200 | 3.47 µM | –
79 | COc1ccc(-c2c(C#N)c(-c3ccccc3)n(NS(=O)(=O)c3ccccc3)c(=O)c2C#N)cc1 | > 200 | 44.7 µM | –
80 | C[N+]12CC3C(O)CC1CCC32 (stereo not given) | > 1320 | > 1320 µM | –
81 | COc1cc2c(cc1OC)C(Cc1ccccc1NC(=O)c1ccc(C(=O)Nc3ccccc3CC3c4cc(OC)c(OC)cc4CCN3C)cc1)N(C)CC2 (stereo not given) | – | – | inactive
82 | COc1cc2c(c(OC)c1OC)-c1ccc(OC)c(=O)cc1C(NC1=C(Cl)C(=O)c3ccccc3C1=O)CC2 (stereo not given) | > 174 | 0.0562 µM | –
83 | CCOC(=O)/C(C#N)=C/c1ccc(F)cc1 | > 162 | > 162 µM | –
84 | CCC(=O)NC1=CC(=O)C(=O)c2cccnc21 | – | – | inactive
85 | CC(C)C(=O)/C=C/c1ccccc1 | > 200 | 57.5 µM | –
86 | CCC(=O)OC1CCn2c1nc1c2C(=O)C(C)=C(N2CC2)C1=O (stereo not given) | > 200 | 0.575 µM | –
87 | O=C(CNc1cccc(Cl)c1)Nn1c(-c2ccccc2)nc2ccccc2c1=O | > 200 | 2.75 µM | –
88 | CC1=Nc2ccccc2SC(c2c(Cl)cccc2Cl)C1 (stereo not given) | > 22.4 | 4.57 µM | –
